Test results as given in BindingDB's records for PubMed 35033884 (Indian Institute of Technology (B.H.U.), 2022).

assay: Inhibition of PDK1 (unknown origin)

IC50 [nM] | Structure (SMILES)
8 | NC(=O)Nc1ccc2c(c1)/C(=C/c1cc(-c3ccccn3)c[nH]1)C(=O)N2
6 | C/C(=C1/C(=O)Nc2ccc(NC(N)=O)cc21)c1cc(CNC(=O)C2CCNCC2)c[nH]1 [N-[(5-{1-[(3Z)-5-(carbamoylamino)-2-oxo-2,3-dihydro-1H-indol-3-ylidene]ethyl}-1H-pyrrol-3-yl)methyl]piperidine-4-carboxamide]
20 | NC(=O)Nc1ccc2c(c1)/C(=C/c1ccc[nH]1)C(=O)N2 [indolinone based inhibitor, 3l]
4 | CN(C)CCNC(=O)c1cccc(-c2c[nH]c(/C=C3\C(=O)Nc4ccc(NC(N)=O)cc43)c2)c1 [3-(5-{[(3Z)-5-(carbamoylamino)-2-oxo-2,3-dihydro-1H-indol-3-ylidene]methyl}-1H-pyrrol-3-yl)-N-[2-(dimethylamino)ethyl]benzamide]
